One experiment has as its target recombinant Plk1 (Homo sapiens, UniProt P53350). Nature of the experiment: In Vitro Plk1 Enzyme Assay (SPA, GST-Cdc25C phosphorylation). Type of experiment: biochemical. Particulars: ATP 64 nM, 90 minutes, read-out: IC50 (Plk1 enzyme inhibition).
Experiment [1] has as its system human colon tumour cell line HT29. The experiment is described as follows: Cellular Assay (phosphohistone H3 Ser10 mitotic marker, HT29). In kind it is cell-based. Particulars: HT-29, 24 h, HT29 cells, read-out: IC50 (cellular assay, phosphohistone H3).
Protocol: Chromosome condensation in mitosis is accompanied by phosphorylation of histone H3 on serine 10.
After 24 hours, cells were fixed in 3.7% (v/v) formaldehyde then permeabilised and blocked for 10 minutes in 100 μl 0.5% (v/v) Triton X-100, 1% (w/v) bovine serum albumin (BSA) in phosphate buffered saline (PBS). […] The raw assay data were analysed by non-linear regression analysis and used to determine an IC50 value for each compound.

Each structure is given as a SMILES string.

The results in this text go back to patent US7709471B2, “Compounds” (AstraZeneca AB, priority 2006, dated 2010).

Sequence of recombinant Plk1 (P53350 whole entry): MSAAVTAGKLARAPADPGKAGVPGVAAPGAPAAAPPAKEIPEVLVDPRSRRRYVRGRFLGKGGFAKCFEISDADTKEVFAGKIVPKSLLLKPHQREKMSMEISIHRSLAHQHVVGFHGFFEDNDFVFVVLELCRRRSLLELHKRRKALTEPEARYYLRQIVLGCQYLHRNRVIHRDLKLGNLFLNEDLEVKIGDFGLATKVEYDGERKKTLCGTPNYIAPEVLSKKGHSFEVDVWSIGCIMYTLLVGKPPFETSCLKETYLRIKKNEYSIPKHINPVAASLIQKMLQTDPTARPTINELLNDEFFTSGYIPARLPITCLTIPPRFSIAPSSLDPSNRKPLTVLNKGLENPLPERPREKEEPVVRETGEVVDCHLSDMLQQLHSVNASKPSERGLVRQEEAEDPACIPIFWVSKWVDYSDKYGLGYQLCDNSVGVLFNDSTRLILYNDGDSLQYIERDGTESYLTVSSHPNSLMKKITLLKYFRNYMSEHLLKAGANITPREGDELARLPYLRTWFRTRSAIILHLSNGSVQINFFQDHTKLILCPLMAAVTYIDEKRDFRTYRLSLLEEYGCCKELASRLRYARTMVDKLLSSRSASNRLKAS

In the case of `COc1cc(C(=O)NCCCN2CCN(C)CC2)ccc1Nc1ncc2c(n1)N(C1CCCC1)CCC(=O)N2C` [Example 20, 4-[(6-cyclopentyl-2-methyl-3-oxo-2,6,8,10-tetrazabicyclo[5.4.0]undeca-8,10,12-trien-9-yl)amino]-3-methoxy-N-[3-(4-methylpiperazin-1-yl)propyl]benzamide], the IC50 (on recombinant Plk1; in experiment [1]) was less than 300 nM each time.
As for `COc1cc(C(=O)NC2CCNC2)ccc1Nc1ncc2c(n1)N(C1CCCC1)CCC(=O)N2C` (centres unmarked) [Example 45, 4-[(6-cyclopentyl-2-methyl-3-oxo-2,6,8,10-tetrazabicyclo[5.4.0]undeca-8,10,12-trien-9-yl)amino]-3-methoxy-N-pyrrolidin-3-yl-benzamide], the IC50 (on recombinant Plk1; in experiment [1]) was less than 300 nM in each case.
Take `COc1cc(C(=O)NCCN(C)C)ccc1Nc1ncc2c(n1)N(C(C)C)CCC(=O)N2C` [Example 207, N-(2-dimethylaminoethyl)-3-methoxy-4-[(2-methyl-3-oxo-6-propan-2-yl-2,6,8,10-tetrazabicyclo[5.4.0]undeca-7,9,11-trien-9-yl)amino]benzamide]: the IC50 (at recombinant Plk1; in experiment [1]) was less than 300 nM in each case.
Regarding `CN(C)c1ccc(Nc2ncc3c(n2)N(C2CCCC2)CCC(=O)N3C)cc1` [Example 122, 6-cyclopentyl-9-[(4-dimethylaminophenyl)amino]-2-methyl-2,6,8,10-tetrazabicyclo[5.4.0]undeca-8,10,12-trien-3-one], the half-maximal inhibitory concentration (IC50) at recombinant Plk1 is less than 100000 nM; in experiment [1] it was less than 30000 nM.
The like results for `COc1cc(C(=O)N[C@H]2[C@@H]3CN(C)C[C@@H]32)ccc1Nc1ncc2c(n1)N(C1CCCC1)CCC(=O)N2C` [Example 64, 4-[(6-cyclopentyl-2-methyl-3-oxo-2,6,8,10-tetrazabicyclo[5.4.0]undeca-8,10,12-trien-9-yl)amino]-3-methoxy-N-[(1S,5R)-3-methyl-3-azabicyclo[3.1.0]hex-6-yl]benzamide] were, in that order, less than 300 nM and less than 300 nM.
With `CCc1ccccc1Nc1ncc2c(n1)N(C1CCCC1)CCC(=O)N2C` [Example 143, 6-cyclopentyl-9-[(2-ethylphenyl)amino]-2-methyl-2,6,8,10-tetrazabicyclo[5.4.0]undeca-8,10,12-trien-3-one], the IC50 was less than 1000 nM at recombinant Plk1 and less than 30000 nM in experiment [1].
As for `COc1cc(C(=O)N[C@H]2CCN(C(=O)OC(C)(C)C)C2)ccc1Nc1ncc2c(n1)N(C1CCCC1)CCC(=O)N2C` [Example 53, tert-butyl (3S)-3-[[4-[(6-cyclopentyl-2-methyl-3-oxo-2,6,8,10-tetrazabicyclo[5.4.0]undeca-8,10,12-trien-9-yl)amino]-3-methoxy-benzoyl]amino]pyrrolidine-1-carboxylate], the half-maximal inhibitory concentration (IC50) on recombinant Plk1 was less than 100000 nM; in experiment [1], less than 1000 nM.
For `COc1cc(C(=O)NCC(C)(C)CN)ccc1Nc1ncc2c(n1)N(C1CCCC1)CCC(=O)N2C` [Example 46, N-(3-amino-2,2-dimethyl-propyl)-4-[(6-cyclopentyl-2-methyl-3-oxo-2,6,8,10-tetrazabicyclo[5.4.0]undeca-8,10,12-trien-9-yl)amino]-3-methoxy-benzamide] the same measures were less than 300 nM and less than 300 nM.
For `COc1cc(C(=O)N[C@H]2CCN(C)C2)ccc1Nc1ncc2c(n1)N(C1CCCC1)CCC(=O)N2C` [Example 63, 4-[(6-cyclopentyl-2-methyl-3-oxo-2,6,8,10-tetrazabicyclo[5.4.0]undeca-8,10,12-trien-9-yl)amino]-3-methoxy-N-[(3S)-1-methylpyrrolidin-3-yl]benzamide] the same measures were less than 300 nM and less than 300 nM.
The like results for `CNCCCNC(=O)c1ccc(Nc2ncc3c(n2)N(C2CCCC2)CCC(=O)N3C)c(OC)c1` [Example 44, 4-[(6-cyclopentyl-2-methyl-3-oxo-2,6,8,10-tetrazabicyclo[5.4.0]undeca-8,10,12-trien-9-yl)amino]-3-methoxy-N-(3-methylaminopropyl)benzamide] were, in that order, less than 300 nM and less than 300 nM.
On to `CN1CCC(NC(=O)c2coc(Nc3ncc4c(n3)N(C3CCCC3)CCC(=O)N4C)n2)CC1` [Example 265, 2-[(6-cyclopentyl-2-methyl-3-oxo-2,6,8,10-tetrazabicyclo[5.4.0]undeca-8,10,12-trien-9-yl)amino]-N-(1-methyl-4-piperidyl)1,3-oxazole-4-carboxamide], for which the values for the 50% inhibitory concentration (IC50) (on recombinant Plk1; in experiment [1]) were less than 100000 nM and less than 30000 nM, respectively.
Turning to `COc1cc(C(=O)NC2CCN(C)CC2)ccc1Nc1ncc2c(n1)N(C)CCC(=O)N2C` [Example 5, 4-[(2,6-Dimethyl-5-oxo-2,6,9,11-tetrazabicyclo[5.4.0]undeca-7,9,11-trien-10-yl)amino]-3-methoxy-N-(1-methyl-4-piperidyl)benzamide], the values for the IC50 (at recombinant Plk1; in experiment [1]) were less than 300 nM and less than 30000 nM, respectively.
The like results for `CN1C(=O)CCN(C2CCCC2)c2nc(Nc3cc(F)c(C(=O)N[C@@H]4CCNC4)cc3Cl)ncc21` [Example 321, 5-chloro-4-[(2-cyclopentyl-6-methyl-5-oxo-2,6,9,11-tetrazabicyclo[5.4.0]undeca-7,9,11-trien-10-yl)amino]-2-fluoro-N-[(3R)-pyrrolidin-3-yl]benzamide] were, in that order, less than 300 nM and less than 300 nM.
On to `COc1cc(C(=O)NC2CCN(C)CC2)ccc1Nc1ncc2c(n1)N(C1CCCC1=O)CCC(=O)N2C` (centres unmarked) [Example 410, 3-methoxy-4-[[6-methyl-5-oxo-2-(2-oxocyclopentyl)-2,6,9,11-tetrazabicyclo[5.4.0]undeca-7,9,11-trien-10-yl]amino]-N-(1-methyl-4-piperidyl)benzamide], for which the IC50 on recombinant Plk1 was less than 1000 nM; in experiment [1], less than 30000 nM.
On to `COc1cc(C(=O)NC2CCN(C(=O)OC(C)(C)C)CC2)ccc1Nc1ncc2c(n1)N(C1CCCC1)CCC(=O)N2C` [Example 50, tert-butyl 4-[[4-[(6-cyclopentyl-2-methyl-3-oxo-2,6,8,10-tetrazabicyclo[5.4.0]undeca-8,10,12-trien-9-yl)amino]-3-methoxy-benzoyl]amino]piperidine-1-carboxylate], for which the IC50 at recombinant Plk1 was less than 100000 nM; in experiment [1], less than 300 nM.
As for `COc1cc(C(=O)NC2CCCCC2)ccc1Nc1ncc2c(n1)N(CCN(C)C)CCC(=O)N2C` [Example 275, N-cyclohexyl-4-[[2-(2-dimethylaminoethyl)-6-methyl-5-oxo-2,6,9,11-tetrazabicyclo[5.4.0]undeca-7,9,11-trien-10-yl]amino]-3-methoxy-benzamide], the IC50 at recombinant Plk1 was less than 100000 nM; in experiment [1], less than 30000 nM.
For `CN1CCC(NC(=O)c2ccc(Nc3ncc4c(n3)N(C3CCCC3)CCC(=O)N4C)c(OC(F)(F)F)c2)CC1` [Example 199, 4-[(6-cyclopentyl-2-methyl-3-oxo-2,6,8,10-tetrazabicyclo[5.4.0]undeca-8,10,12-trien-9-yl)amino]-N-(1-methyl-4-piperidyl)-3-(trifluoromethoxy)benzamide] the same measures were less than 100000 nM and less than 300 nM.
On to `COc1cc(C(=O)N[C@H]2CCNC2)ccc1Nc1ncc2c(n1)N(C1CCCC1)CCC(=O)N2C` [Example 56, 4-[(6-cyclopentyl-2-methyl-3-oxo-2,6,8,10-tetrazabicyclo[5.4.0]undeca-8,10,12-trien-9-yl)amino]-3-methoxy-N-[(3S)-pyrrolidin-3-yl]benzamide], for which the half-maximal inhibitory concentration (IC50) on recombinant Plk1 is less than 300 nM; in experiment [1], less than 1000 nM.
For `COc1cc(C(=O)NC2CCCCC2)ccc1Nc1ncc2c(n1)N(CCN1CCOCC1)CCC(=O)N2C` [Example 277, N-cyclohexyl-3-methoxy-4-[[6-methyl-2-(2-morpholin-4-ylethyl)-5-oxo-2,6,9,11-tetrazabicyclo[5.4.0]undeca-7,9,11-trien-10-yl]amino]benzamide] the same measures were less than 100000 nM and less than 30000 nM.
For `CN(C)CCNC(=O)c1ccc(Nc2ncc3c(n2)N(C2CCCC2)CCC(=O)N3C)c(Cl)c1` [Example 315, 3-chloro-4-[(2-cyclopentyl-6-methyl-5-oxo-2,6,9,11-tetrazabicyclo[5.4.0]undeca-7,9,11-trien-10-yl)amino]-N-(2-dimethylaminoethyl)benzamide] the same measures were less than 300 nM and less than 300 nM.
For `COc1cc(C(=O)NCc2ccccc2)ccc1Nc1ncc2c(n1)N(C1CCCC1)CCC(=O)N2C` [Example 96, N-benzyl-4-[(6-cyclopentyl-2-methyl-3-oxo-2,6,8,10-tetrazabicyclo[5.4.0]undeca-8,10,12-trien-9-yl)amino]-3-methoxy-benzamide] the same measures were less than 100000 nM and less than 300 nM.
On to `COc1cc(C(=O)NC2CCN(C)CC2)c(F)cc1Nc1ncc2c(n1)N(C1CCCC1)CCC(=O)N2C` [Example 48, 4-[(6-cyclopentyl-2-methyl-3-oxo-2,6,8,10-tetrazabicyclo[5.4.0]undeca-8,10,12-trien-9-yl)amino]-2-fluoro-5-methoxy-N-(1-methyl-4-piperidyl)benzamide], for which the IC50 (on recombinant Plk1; in experiment [1]) was less than 300 nM throughout.
In the case of `COc1cc(C(=O)NCC(C)(C)CN(C)C)ccc1Nc1ncc2c(n1)N(C(C)C)CCC(=O)N2C` [Example 208, N-(3-dimethylamino-2,2-dimethyl-propyl)-3-methoxy-4-[(2-methyl-3-oxo-6-propan-2-yl-2,6,8,10-tetrazabicyclo[5.4.0]undeca-7,9,11-trien-9-yl)amino]benzamide], the IC50 (at recombinant Plk1; in experiment [1]) was less than 300 nM throughout.
For `Cc1ccc(CO)cc1Nc1ncc2c(n1)N(C1CCCC1)CCC(=O)N2C` [Example 178, 6-cyclopentyl-9-[[5-(hydroxymethyl)-2-methyl-phenyl]amino]-2-methyl-2,6,8,10-tetrazabicyclo[5.4.0]undeca-8,10,12-trien-3-one], the IC50 was less than 1000 nM at recombinant Plk1 and less than 30000 nM in experiment [1].
`CC(=O)c1cccc(Nc2ncc3c(n2)N(C2CCCC2)CCC(=O)N3C)c1` [Example 165, 9-[(3-acetylphenyl)amino]-6-cyclopentyl-2-methyl-2,6,8,10-tetrazabicyclo[5.4.0]undeca-8,10,12-trien-3-one]: the IC50 on recombinant Plk1 is less than 1000 nM; in experiment [1], less than 30000 nM.

In general, IC50 refers to the concentration at which inhibition is half-maximal.
